# Assay results reported in patent US6638973B2, “Taxane formulations” (FSU Research Foundation, Inc., priority 2000, dated 2003).
# Read-outs that look alike come from different tables or passages of the source.
# Test system: HCT116 cells
# Test: In vitro cytotoxicity measured by the cell colony formation assay
# Assay type: cell-based
# Conditions: colonies counted after 7 days, read-out: IN VITRO ID 50 (nm) HCT116
# In short: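 Colony-forming survival was scored 7 days after a 72 h, 37 °C compound exposure followed by washout into fresh medium.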
# [1] = HCT116 colony formation, 72 h drug incubation, Example 10, C-10 ester/C-7 hydroxy taxanes
# [2] = HCT116 colony formation, 72 h drug incubation, Example 5, C-7 ester/C-10 hydroxy taxanes
# [3] = HCT116 cells, 72 h incubation with drug, ID50 = drug concentration producing 50% inhibition of colony formation
smiles,measurement,setting,value
CCCC(=O)N[C@@H](c1cccs1)[C@@H](O)C(=O)O[C@H]1C[C@@]2(O)[C@@H](OC(=O)c3ccccc3)C3[C@](C)(C(=O)[C@H](OC(=O)CCC)C(=C1C)C2(C)C)[C@@H](O)C[C@H]1OC[C@@]31OC(C)=O (stereo partly drawn) [Compound 3314],IC50,[1],< 1 nM
CC(=O)O[C@@]12CO[C@@H]1C[C@H](O)[C@@]1(C)C(=O)[C@H](OC(=O)C=C(C)C)C3=C(C)[C@@H](OC(=O)[C@H](O)[C@@H](NC(=O)OC(C)(C)C)c4ccncc4)C[C@@](O)([C@@H](OC(=O)c4ccccc4)C12)C3(C)C (stereo partly drawn) [Compound 2472],IC50,[1],< 1 nM
CCCC(=O)O[C@H]1C[C@H]2OC[C@@]2(OC(C)=O)C2[C@H](OC(=O)c3ccccc3)[C@]3(O)C[C@H](OC(=O)[C@H](O)[C@@H](NC(=O)OC=C(C)C)c4ccco4)C(C)=C([C@@H](O)C(=O)[C@@]21C)C3(C)C (stereo partly drawn) [Compound 6181],IC50,[2],< 1 nM
CCCC(=O)O[C@H]1C(=O)[C@@]2(C)C([C@H](OC(=O)c3ccccc3)[C@]3(O)C[C@H](OC(=O)[C@H](O)[C@@H](NC(=O)OCC(C)C)C4CC4)C(C)=C1C3(C)C)[C@]1(OC(C)=O)CO[C@@H]1C[C@@H]2O (stereo partly drawn) [Compound 4808],IC50,[1],< 10 nM
CC(=O)O[C@@]12CO[C@@H]1C[C@H](O)[C@@]1(C)C(=O)[C@H](OC(=O)C3CC3)C3=C(C)[C@@H](OC(=O)[C@H](O)[C@@H](NC(=O)OC(C)(C)C)c4ccc([N+](=O)[O-])cc4)C[C@@](O)([C@@H](OC(=O)c4ccccc4)C12)C3(C)C (stereo partly drawn) [Compound 0879],IC50,[1],< 1 nM
CCC(=O)O[C@H]1C(=O)[C@@]2(C)C([C@H](OC(=O)c3ccccc3)[C@]3(O)C[C@H](OC(=O)[C@H](O)[C@@H](NC(=O)OC(C)(C)C)c4ccncc4)C(C)=C1C3(C)C)[C@]1(OC(C)=O)CO[C@@H]1C[C@@H]2O (stereo partly drawn) [Compound 0521],IC50,[1],< 1 nM
CCC(=O)O[C@H]1C[C@H]2OC[C@@]2(OC(C)=O)C2[C@H](OC(=O)c3ccccc3)[C@]3(O)C[C@H](OC(=O)[C@H](O)[C@@H](NC(=O)c4cccs4)c4cccs4)C(C)=C([C@@H](O)C(=O)[C@@]21C)C3(C)C (stereo partly drawn) [Compound 3479],IC50,[2],< 1 nM
C/C=C/C(=O)N[C@@H](c1cccs1)[C@@H](O)C(=O)O[C@H]1C[C@@]2(O)[C@@H](OC(=O)c3ccccc3)C3[C@](C)(C(=O)[C@H](O)C(=C1C)C2(C)C)[C@@H](OC(=O)OCC)C[C@H]1OC[C@@]31OC(C)=O (stereo partly drawn) [Compound 4855],IC50,[3],< 1 nM
CC(=O)O[C@@]12CO[C@@H]1C[C@H](O)[C@@]1(C)C(=O)[C@H](OC(=O)C3CC3)C3=C(C)[C@@H](OC(=O)[C@H](O)[C@@H](NC(=O)c4ccccc4)c4cccs4)C[C@@](O)([C@@H](OC(=O)c4ccccc4)C12)C3(C)C (stereo partly drawn) [Compound 0919],IC50,[1],< 1 nM
CCOC(=O)O[C@H]1C(=O)[C@@]2(C)C([C@H](OC(=O)c3ccccc3)[C@]3(O)C[C@H](OC(=O)[C@H](O)[C@@H](NC(=O)c4ccccn4)c4cccs4)C(C)=C1C3(C)C)[C@]1(OC(C)=O)CO[C@@H]1C[C@@H]2O (stereo partly drawn) [Compound 3433],IC50,[3],22.3 nM
CCCC(=O)O[C@H]1C(=O)[C@@]2(C)C([C@H](OC(=O)c3ccccc3)[C@]3(O)C[C@H](OC(=O)[C@H](O)[C@@H](NC(=O)OCC(C)C)c4ccsc4)C(C)=C1C3(C)C)[C@]1(OC(C)=O)CO[C@@H]1C[C@@H]2O (stereo partly drawn) [Compound 4834],IC50,[1],< 10 nM
CC(=O)O[C@@]12CO[C@@H]1C[C@H](O)[C@@]1(C)C(=O)[C@H](OC(=O)C3CC3)C3=C(C)[C@@H](OC(=O)[C@H](O)[C@@H](NC(=O)OC(C)(C)C)c4ccccn4)C[C@@](O)([C@@H](OC(=O)c4ccccc4)C12)C3(C)C (stereo partly drawn) [Compound 2802],IC50,[1],< 1 nM
CCOC(=O)O[C@H]1C[C@H]2OC[C@@]2(OC(C)=O)C2[C@H](OC(=O)c3ccccc3)[C@]3(O)C[C@H](OC(=O)[C@H](O)[C@@H](NC(=O)c4ccccc4)c4cccs4)C(C)=C([C@@H](O)C(=O)[C@@]21C)C3(C)C (stereo partly drawn) [Compound 4188],IC50,[3],< 10 nM
CC(=O)OC12COC1CC(O)C1(C)C(=O)C(OC(=O)c3cccs3)C3=C(C)C(OC(=O)C(O)C(NC(=O)OC(C)(C)C)c4ccccc4)CC(O)(C(OC(=O)c4ccccc4)C21)C3(C)C (stereo not drawn) [Compound 1988],IC50,[1],< 10 nM
C/C=C/C(=O)N[C@@H](c1ccco1)[C@@H](O)C(=O)O[C@H]1C[C@@]2(O)[C@@H](OC(=O)c3ccccc3)C3[C@](C)(C(=O)[C@H](O)C(=C1C)C2(C)C)[C@@H](OC(=O)OCC)C[C@H]1OC[C@@]31OC(C)=O (stereo partly drawn) [Compound 4818],IC50,[3],< 1 nM
CCCC(=O)O[C@H]1C[C@H]2OC[C@@]2(OC(C)=O)C2[C@H](OC(=O)c3ccccc3)[C@]3(O)C[C@H](OC(=O)[C@H](O)[C@@H](NC(=O)OCC(C)C)C4CC4)C(C)=C([C@@H](O)C(=O)[C@@]21C)C3(C)C (stereo partly drawn) [Compound 5202],IC50,[2],< 10 nM
CCCC(=O)O[C@H]1C(=O)[C@@]2(C)C([C@H](OC(=O)c3ccccc3)[C@]3(O)C[C@H](OC(=O)[C@H](O)[C@@H](NC(=O)OCC(C)C)c4ccco4)C(C)=C1C3(C)C)[C@]1(OC(C)=O)CO[C@@H]1C[C@@H]2O (stereo partly drawn) [Compound 3110],IC50,[1],< 1 nM
COC(=O)O[C@H]1C(=O)[C@@]2(C)C([C@H](OC(=O)c3ccccc3)[C@]3(O)C[C@H](OC(=O)[C@H](O)[C@@H](NC(=O)OC(C)(C)C)c4ccc([N+](=O)[O-])cc4)C(C)=C1C3(C)C)[C@]1(OC(C)=O)CO[C@@H]1C[C@@H]2O (stereo partly drawn) [Compound 2088],IC50,[3],< 1 nM
CCOC(=O)O[C@H]1C(=O)[C@@]2(C)C([C@H](OC(=O)c3ccccc3)[C@]3(O)C[C@H](OC(=O)[C@H](O)[C@@H](NC(=O)OCC(C)C)c4ccco4)C(C)=C1C3(C)C)[C@]1(OC(C)=O)CO[C@@H]1C[C@@H]2O (stereo partly drawn) [Compound 3181],IC50,[3],< 1 nM
CCCC(=O)O[C@H]1C[C@H]2OC[C@@]2(OC(C)=O)C2[C@H](OC(=O)c3ccccc3)[C@]3(O)C[C@H](OC(=O)[C@H](O)[C@@H](NC(=O)OC(C)(C)C)c4ccoc4)C(C)=C([C@@H](O)C(=O)[C@@]21C)C3(C)C (stereo partly drawn) [Compound 4394],IC50,[2],< 1 nM
CCC(=O)O[C@H]1C[C@H]2OC[C@@]2(OC(C)=O)C2[C@H](OC(=O)c3ccccc3)[C@]3(O)C[C@H](OC(=O)[C@H](O)[C@@H](NC(=O)c4ccco4)c4cccs4)C(C)=C([C@@H](O)C(=O)[C@@]21C)C3(C)C (stereo partly drawn) [Compound 3069],IC50,[2],< 1 nM
CCCC(=O)O[C@H]1C[C@H]2OC[C@@]2(OC(C)=O)C2[C@H](OC(=O)c3ccccc3)[C@]3(O)C[C@H](OC(=O)[C@H](O)[C@@H](NC(=O)OC(C)C)c4cccs4)C(C)=C([C@@H](O)C(=O)[C@@]21C)C3(C)C (stereo partly drawn) [Compound 4135],IC50,[2],< 1 nM
CCC(=O)O[C@H]1C(=O)[C@@]2(C)C([C@H](OC(=O)c3ccccc3)[C@]3(O)C[C@H](OC(=O)[C@H](O)[C@@H](NC(=O)c4ccccc4)c4ccccn4)C(C)=C1C3(C)C)[C@]1(OC(C)=O)CO[C@@H]1C[C@@H]2O (stereo partly drawn) [Compound 0634],IC50,[1],< 10 nM
CCC(=O)O[C@H]1C(=O)[C@@]2(C)C([C@H](OC(=O)c3ccccc3)[C@]3(O)C[C@H](OC(=O)[C@H](O)[C@@H](NC(=O)OC(C)(C)C)c4ccc([N+](=O)[O-])cc4)C(C)=C1C3(C)C)[C@]1(OC(C)=O)CO[C@@H]1C[C@@H]2O (stereo partly drawn) [Compound 0602],IC50,[1],< 1 nM
CCCC(=O)O[C@H]1C[C@H]2OC[C@@]2(OC(C)=O)C2[C@H](OC(=O)c3ccccc3)[C@]3(O)C[C@H](OC(=O)[C@H](O)[C@@H](NC(=O)OCC(C)C)c4ccsc4)C(C)=C([C@@H](O)C(=O)[C@@]21C)C3(C)C (stereo partly drawn) [Compound 4600],IC50,[2],< 10 nM
CCC(=O)O[C@H]1C(=O)[C@@]2(C)C([C@H](OC(=O)c3ccccc3)[C@]3(O)C[C@H](OC(=O)[C@H](O)[C@@H](NC(=O)c4ccccc4)c4ccoc4)C(C)=C1C3(C)C)[C@]1(OC(C)=O)CO[C@@H]1C[C@@H]2O (stereo partly drawn) [Compound 0670],IC50,[1],< 1 nM
C/C=C/C(=O)O[C@H]1C(=O)[C@@]2(C)C([C@H](OC(=O)c3ccccc3)[C@]3(O)C[C@H](OC(=O)[C@H](O)[C@@H](NC(=O)OC(C)(C)C)c4ccoc4)C(C)=C1C3(C)C)[C@]1(OC(C)=O)CO[C@@H]1C[C@@H]2O (stereo partly drawn) [Compound 2380],IC50,[1],< 1 nM
CCC(=O)O[C@H]1C[C@H]2OC[C@@]2(OC(C)=O)C2[C@H](OC(=O)c3ccccc3)[C@]3(O)C[C@H](OC(=O)[C@H](O)[C@@H](NC(=O)OC(C)(C)C)C4CC4)C(C)=C([C@@H](O)C(=O)[C@@]21C)C3(C)C (stereo partly drawn) [Compound 5070],IC50,[2],< 10 nM
C/C=C/C(=O)O[C@H]1C(=O)[C@@]2(C)C([C@H](OC(=O)c3ccccc3)[C@]3(O)C[C@H](OC(=O)[C@H](O)[C@@H](NC(=O)OC(C)(C)C)c4ccncc4)C(C)=C1C3(C)C)[C@]1(OC(C)=O)CO[C@@H]1C[C@@H]2O (stereo partly drawn) [Compound 2366],IC50,[1],< 1 nM
CCOC(=O)O[C@H]1C(=O)[C@@]2(C)C([C@H](OC(=O)c3ccccc3)[C@]3(O)C[C@H](OC(=O)[C@H](O)[C@@H](NC(=O)OCC(C)C)c4ccsc4)C(C)=C1C3(C)C)[C@]1(OC(C)=O)CO[C@@H]1C[C@@H]2O (stereo partly drawn) [Compound 4924],IC50,[3],< 10 nM
CC(=O)OC12COC1CC(O)C1(C)C(=O)C(OC(=O)c3cccs3)C3=C(C)C(OC(=O)C(O)C(NC(=O)OC(C)(C)C)C4CCC4)CC(O)(C(OC(=O)c4ccccc4)C21)C3(C)C (stereo not drawn) [Compound 1970],IC50,[1],< 10 nM
"CC(=O)O[C@@]12CO[C@@H]1C[C@H](OC(=O)Nc1ccccc1)[C@@]1(C)C(=O)[C@H](O)C3=C(C)[C@@H](OC(=O)[C@H](O)[C@@H](NC(=O)C=C(C)C)c4ccco4)C[C@@](O)([C@@H](OC(=O)c4ccccc4)C12)C3(C)C (stereo partly drawn) [Compound 5535, N-Debenzoyl-N-isobutenyl-3′-desphenyl-3′-(2-furyl)-7-phenylcarbamoyl taxol]",IC50,"HCT116 cells, 72 h drug incubation, ID50 = drug concentration producing 50% inhibition of colony formation",< 1 nM
CC(=O)O[C@H]1C[C@H]2OC[C@@]2(OC(C)=O)C2[C@H](OC(=O)c3ccccc3)[C@]3(O)C[C@H](OC(=O)[C@H](O)[C@@H](NC(=O)OC(C)(C)C)C4CC4)C(C)=C([C@@H](O)C(=O)[C@@]21C)C3(C)C (stereo partly drawn) [Compound 4555],IC50,[3],< 1 nM
